The source of these data is ChEMBL document CHEMBL1143439, “Open-chain half-bastadins mimic the effects of cyclic bastadins on calcium homeostasis in cultured neurons” (Bioorg Med Chem Lett, 2008).

Active and inactive are the calls of the source. The calls are words filed in the database; no cut-off is given here.

Assay [1] is filed under the species Rattus norvegicus. As to the kind of experiment: Activity at RYR2 receptor in rat cerebellar granule neurons assessed activation of [45Ca2+] uptake at 20 uM after 10 mins.
The species entered for assay [2] is Rattus norvegicus. Put plainly: Activity at RYR2 receptor in rat cerebellar granule neurons assessed as increase in intracellular calcium level at 20 uM. The assay is classed as cell-based. (Calcium assays in cells follow changes in intracellular calcium, usually with a dye or a luminescent sensor.)
The target of a further assay is Ryanodine receptor 1 (Homo sapiens, UniProt P21817). Put plainly: Binding affinity to RYR1 channels by calcium mobilization assay.
Chain of Ryanodine receptor 1 (P21817 whole entry): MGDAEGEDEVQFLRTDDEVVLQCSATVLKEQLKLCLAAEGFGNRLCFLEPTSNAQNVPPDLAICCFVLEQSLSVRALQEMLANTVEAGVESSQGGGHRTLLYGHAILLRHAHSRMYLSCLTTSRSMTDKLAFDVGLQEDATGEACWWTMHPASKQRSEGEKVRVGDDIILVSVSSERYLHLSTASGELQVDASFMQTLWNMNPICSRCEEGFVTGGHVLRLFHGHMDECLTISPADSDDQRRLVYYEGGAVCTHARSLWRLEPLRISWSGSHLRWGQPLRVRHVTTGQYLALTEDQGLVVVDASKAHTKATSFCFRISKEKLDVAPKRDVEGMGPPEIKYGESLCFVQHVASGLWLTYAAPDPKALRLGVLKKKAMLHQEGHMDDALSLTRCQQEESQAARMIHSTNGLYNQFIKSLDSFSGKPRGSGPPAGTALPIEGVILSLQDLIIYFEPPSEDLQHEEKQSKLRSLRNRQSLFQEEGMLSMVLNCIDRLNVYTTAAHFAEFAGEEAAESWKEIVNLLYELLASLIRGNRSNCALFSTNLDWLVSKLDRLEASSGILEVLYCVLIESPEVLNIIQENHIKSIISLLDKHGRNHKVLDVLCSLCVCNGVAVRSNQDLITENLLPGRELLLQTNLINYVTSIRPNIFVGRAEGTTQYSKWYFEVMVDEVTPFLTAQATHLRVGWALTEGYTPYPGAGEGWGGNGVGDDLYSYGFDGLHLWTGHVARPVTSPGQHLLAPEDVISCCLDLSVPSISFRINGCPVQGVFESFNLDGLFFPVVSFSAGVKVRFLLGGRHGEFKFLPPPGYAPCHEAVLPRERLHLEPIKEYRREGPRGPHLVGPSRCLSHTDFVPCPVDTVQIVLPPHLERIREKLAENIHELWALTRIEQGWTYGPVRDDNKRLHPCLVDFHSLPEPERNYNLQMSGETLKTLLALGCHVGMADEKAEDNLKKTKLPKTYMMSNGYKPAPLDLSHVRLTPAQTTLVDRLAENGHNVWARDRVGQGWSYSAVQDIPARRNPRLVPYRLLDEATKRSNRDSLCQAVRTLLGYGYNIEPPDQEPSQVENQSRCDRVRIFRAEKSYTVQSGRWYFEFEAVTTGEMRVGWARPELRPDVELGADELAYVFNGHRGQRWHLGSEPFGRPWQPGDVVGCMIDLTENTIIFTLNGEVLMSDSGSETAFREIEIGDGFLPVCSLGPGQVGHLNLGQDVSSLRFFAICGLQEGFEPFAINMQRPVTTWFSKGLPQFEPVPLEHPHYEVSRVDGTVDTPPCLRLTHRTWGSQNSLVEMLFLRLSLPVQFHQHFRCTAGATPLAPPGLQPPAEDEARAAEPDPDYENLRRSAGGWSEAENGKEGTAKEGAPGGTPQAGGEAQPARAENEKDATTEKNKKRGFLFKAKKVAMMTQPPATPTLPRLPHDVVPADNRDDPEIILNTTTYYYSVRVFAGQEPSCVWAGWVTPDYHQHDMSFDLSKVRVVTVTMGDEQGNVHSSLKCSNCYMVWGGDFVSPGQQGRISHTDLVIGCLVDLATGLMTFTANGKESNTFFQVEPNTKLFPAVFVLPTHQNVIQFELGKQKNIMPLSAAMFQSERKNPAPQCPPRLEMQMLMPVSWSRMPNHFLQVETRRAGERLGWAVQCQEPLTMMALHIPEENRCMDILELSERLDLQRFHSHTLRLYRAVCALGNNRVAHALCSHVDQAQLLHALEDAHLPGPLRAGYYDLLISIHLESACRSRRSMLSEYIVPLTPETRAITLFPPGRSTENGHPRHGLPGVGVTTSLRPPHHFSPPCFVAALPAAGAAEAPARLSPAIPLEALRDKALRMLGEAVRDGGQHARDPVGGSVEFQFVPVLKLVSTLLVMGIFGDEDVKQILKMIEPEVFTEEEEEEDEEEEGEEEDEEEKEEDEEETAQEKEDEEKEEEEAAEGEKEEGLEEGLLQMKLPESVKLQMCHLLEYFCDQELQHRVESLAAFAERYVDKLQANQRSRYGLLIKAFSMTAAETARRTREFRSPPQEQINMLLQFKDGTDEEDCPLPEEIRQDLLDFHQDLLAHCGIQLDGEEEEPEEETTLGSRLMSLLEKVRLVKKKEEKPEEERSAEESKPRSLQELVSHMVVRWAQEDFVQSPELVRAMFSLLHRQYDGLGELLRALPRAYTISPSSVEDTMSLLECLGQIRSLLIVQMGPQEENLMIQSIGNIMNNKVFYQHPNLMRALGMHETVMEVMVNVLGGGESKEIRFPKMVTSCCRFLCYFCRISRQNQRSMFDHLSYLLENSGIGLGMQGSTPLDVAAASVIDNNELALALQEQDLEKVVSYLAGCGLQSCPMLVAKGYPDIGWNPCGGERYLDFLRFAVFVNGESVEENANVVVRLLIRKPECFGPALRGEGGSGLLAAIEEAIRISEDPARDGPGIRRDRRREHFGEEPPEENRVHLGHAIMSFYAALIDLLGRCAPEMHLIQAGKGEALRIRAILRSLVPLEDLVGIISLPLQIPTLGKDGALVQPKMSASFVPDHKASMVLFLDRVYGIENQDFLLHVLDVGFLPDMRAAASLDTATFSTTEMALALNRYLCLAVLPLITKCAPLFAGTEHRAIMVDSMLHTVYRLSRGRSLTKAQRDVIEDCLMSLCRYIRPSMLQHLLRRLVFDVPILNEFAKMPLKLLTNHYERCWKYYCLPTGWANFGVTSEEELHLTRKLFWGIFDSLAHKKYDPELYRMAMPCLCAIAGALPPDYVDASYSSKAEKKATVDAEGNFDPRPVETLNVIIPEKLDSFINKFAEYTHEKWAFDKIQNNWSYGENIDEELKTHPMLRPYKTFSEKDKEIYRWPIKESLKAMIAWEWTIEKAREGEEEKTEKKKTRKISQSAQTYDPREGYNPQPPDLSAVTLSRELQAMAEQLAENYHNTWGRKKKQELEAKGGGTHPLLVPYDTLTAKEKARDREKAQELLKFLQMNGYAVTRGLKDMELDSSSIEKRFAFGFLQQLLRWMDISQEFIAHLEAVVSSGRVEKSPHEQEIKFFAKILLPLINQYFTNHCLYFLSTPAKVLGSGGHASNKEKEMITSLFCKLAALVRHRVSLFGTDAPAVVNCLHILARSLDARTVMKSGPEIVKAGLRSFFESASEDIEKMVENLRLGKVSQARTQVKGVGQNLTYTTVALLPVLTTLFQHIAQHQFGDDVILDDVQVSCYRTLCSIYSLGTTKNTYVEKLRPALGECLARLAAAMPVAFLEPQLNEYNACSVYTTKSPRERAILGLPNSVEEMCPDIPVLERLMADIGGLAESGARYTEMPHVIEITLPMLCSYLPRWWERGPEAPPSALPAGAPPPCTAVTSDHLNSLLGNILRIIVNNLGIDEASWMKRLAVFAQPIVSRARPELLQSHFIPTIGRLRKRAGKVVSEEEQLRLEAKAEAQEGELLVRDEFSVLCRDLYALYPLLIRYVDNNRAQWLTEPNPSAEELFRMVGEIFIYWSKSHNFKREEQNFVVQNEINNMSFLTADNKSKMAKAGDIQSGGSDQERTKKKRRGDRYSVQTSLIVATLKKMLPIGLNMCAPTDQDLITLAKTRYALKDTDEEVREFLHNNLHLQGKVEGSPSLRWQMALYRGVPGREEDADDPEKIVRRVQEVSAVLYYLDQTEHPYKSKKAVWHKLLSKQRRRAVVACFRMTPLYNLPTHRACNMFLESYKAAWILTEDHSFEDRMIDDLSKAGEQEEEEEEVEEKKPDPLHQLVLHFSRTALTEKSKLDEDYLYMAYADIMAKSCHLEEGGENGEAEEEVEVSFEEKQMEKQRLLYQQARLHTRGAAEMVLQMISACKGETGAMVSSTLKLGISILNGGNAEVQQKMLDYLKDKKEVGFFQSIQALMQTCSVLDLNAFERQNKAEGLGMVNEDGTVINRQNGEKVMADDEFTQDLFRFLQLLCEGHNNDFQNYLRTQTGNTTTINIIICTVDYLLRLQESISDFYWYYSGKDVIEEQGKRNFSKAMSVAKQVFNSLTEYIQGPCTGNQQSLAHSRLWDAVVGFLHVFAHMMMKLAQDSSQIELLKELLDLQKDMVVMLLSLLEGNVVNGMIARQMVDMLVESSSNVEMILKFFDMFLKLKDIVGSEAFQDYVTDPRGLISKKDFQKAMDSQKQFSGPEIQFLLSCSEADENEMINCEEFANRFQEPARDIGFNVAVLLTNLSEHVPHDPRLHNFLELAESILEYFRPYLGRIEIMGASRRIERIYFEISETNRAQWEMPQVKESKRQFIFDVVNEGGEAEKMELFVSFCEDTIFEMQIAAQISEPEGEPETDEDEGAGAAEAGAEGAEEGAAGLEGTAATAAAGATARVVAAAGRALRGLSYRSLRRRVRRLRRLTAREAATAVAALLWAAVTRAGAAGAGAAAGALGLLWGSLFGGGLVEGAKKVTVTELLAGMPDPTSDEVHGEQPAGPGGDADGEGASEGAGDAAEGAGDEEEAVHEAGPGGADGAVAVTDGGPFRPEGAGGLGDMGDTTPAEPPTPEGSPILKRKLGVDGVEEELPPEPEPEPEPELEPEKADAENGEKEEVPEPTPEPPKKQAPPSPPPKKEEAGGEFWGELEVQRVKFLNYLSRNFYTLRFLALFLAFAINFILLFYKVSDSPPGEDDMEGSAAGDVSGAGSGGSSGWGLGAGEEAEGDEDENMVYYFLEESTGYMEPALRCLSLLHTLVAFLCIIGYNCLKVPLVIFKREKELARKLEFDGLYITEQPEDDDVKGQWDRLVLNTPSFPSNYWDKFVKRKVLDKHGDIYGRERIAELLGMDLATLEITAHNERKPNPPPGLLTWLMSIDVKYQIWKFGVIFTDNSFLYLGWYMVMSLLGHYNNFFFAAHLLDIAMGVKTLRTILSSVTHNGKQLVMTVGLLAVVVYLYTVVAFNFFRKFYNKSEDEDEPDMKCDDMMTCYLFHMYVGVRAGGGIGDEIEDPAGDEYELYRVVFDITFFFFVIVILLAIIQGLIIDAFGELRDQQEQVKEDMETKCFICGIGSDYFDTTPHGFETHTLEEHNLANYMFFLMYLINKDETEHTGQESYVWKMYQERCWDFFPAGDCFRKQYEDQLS

`O=C1NCCc2cc(Br)c(O)c(c2)Oc2ccc(cc2Br)CCNC(=O)/C(=N\O)Cc2cc(Br)c(O)c(c2)Oc2c(Br)cc(cc2Br)C/C1=N/O`: the outcome in the assay listed under Rattus norvegicus [1] and in the assay filed under Rattus norvegicus [2] was Active.

On to `O=C1CCNC(=O)CCc2ccc(c(Br)c2)Oc2cc(cc(Br)c2O)CCN1`, for which the IC50 on Ryanodine receptor 1 came out at 6 µM.

For `O=C1CCc2ccc(c(Br)c2)Oc2cc(cc(Br)c2O)CCN1`, the EC50 on Ryanodine receptor 1 was determined as 11 µM.

As to `CCCCNC(=O)/C(Cc1cc(Br)c(Oc2cc(C/C(=N\O)C(=O)NCCCC)cc(Br)c2O)c(Br)c1)=N/O`, the outcome in the assay listed under Rattus norvegicus [1] and in the assay filed under Rattus norvegicus [2] was Active.

For the compound `O=C(NCCc1cc(Br)c(Oc2cc(NC(=O)c3ccccc3)ccc2O)c(Br)c1)c1ccccc1`, the outcome in the assay filed under Rattus norvegicus [2] was inactive.

A word on the IC50: it is the concentration needed to halve the response being measured. The EC50 is the concentration that produces a half-maximal response.
